Test results as given in patent US8314150B2, “Kinase protein binding inhibitors” (priority 2008, dated 2012).

Experiments:
[1] = system: caspase-3; experiment: Caspase-3 immunohistochemistry of Panc-1 tumors; assay type: in vivo, mice; conditions: 30 mg/kg, no significant increase
Description: (§1) Cell Viability Assay—The Cells were treated with peptides for 24 hours at different peptide concentrations. The 3-(4,5-dimethylthiazol-2-yl)-5-(3-carboxymethoxyphenyl)-2-(4-sulfophenyl)-2H-tetrazolium compound from Promega Viability kit (Madison, Ill.) was added, and the cells were incubated at 37° C. for 1-2 hours. The optical density on 96-plate was analyzed with a microplate reader at 490 nm to determine cell viability. In addition, cells were stained with trypan blue after 24 hours of treatment with Y15 and the percent of cells that stained positive were determined with a hemacytometer. […] Then 2% SDS was added to the dried plated and OD at 590 nm was measured for detecting cell adhesion. […] Protein concentrations were determined using a Bio-Rad Kit. The boiled samples were loaded on Ready SDS-10% PAGE gels (Bio Rad, Inc) and used for Western blot analysis with the protein-specific antibody. […] Detachment Assay—Cells were plated with and without inhibitors for 24 hours, and detached and attached cells were counted in a hemocytometer. We calculated the percent of detachment by dividing the number of detached cells by the total number of cells. The percent of detached cells was calculated in three independent experiments. […] For each experiment 300 cells per treatment were counted. […]

[2] = system: Panc-1 tumor cells; experiment: Panc-1 subcutaneous tumor growth in nude mice; assay type: in vivo; conditions: 30 mg/kg each, daily intraperitoneal
Description: as §1

[3] = system: Y397 phosphorylation of FAK; experiment: Western blotting with Y397 FAK antibody, BT474 cells; assay type: cell-based; conditions: 100 μM
Description: (§2) Cell Viability Assay—The Cells were treated with peptides for 24 hours at different peptide concentrations. The 3-(4,5-dimethylthiazol-2-yl)-5-(3-carboxymethoxyphenyl)-2-(4-sulfophenyl)-2H-tetrazolium compound from Promega Viability kit (Madison, Ill.) was added, and the cells were incubated at 37° C. for 1-2 hours. The optical density on 96-plate was analyzed with a microplate reader at 490 nm to determine cell viability. In addition, cells were stained with trypan blue after 24 hours of treatment with Y15 and the percent of cells that stained positive were determined with a hemacytometer. Cell adhesion assay—The poly-L-Lysine or Collagen (5 μg/ml) coated 96-well plates were blocked with the blocking buffer (medium with 0.5% BSA) for 1 hour at 37 C. The cells were pre-treated with drugs for 3 hours and plated for adhesion at 4×10^5 cells. Cells were incubated at 37 C for 1 hour, fixed in 3.7% formaldehyde, washed in 0.1% BSA in PBS and stained with crystal violet (5 mg/ml in 2% ethanol) for 10 minutes. Then 2% SDS was added to the dried plated and OD at 590 nm was measured for detecting cell adhesion. Western Blotting—Cells or homogenized tumor samples were washed twice with cold 1×PBS and lysed on ice for 30 minutes in a buffer containing: 50 mM Tris-HCl (pH 7.5), 150 mM NaCl, 1% Triton-X, 0.5% NaDOC, 0.1% SDS, 5 mM EDTA, 50 mM NaF, 1 mM NaVO3, 10% glycerol and protease inhibitors: 10 μg/ml leupeptin, 10 μg/ml PMSF and 1 μg/ml aprotinin. The lysates were cleared by centrifugation at 10,000 rpm for 30 minutes at 4° C. Protein concentrations were determined using a Bio-Rad Kit. The boiled samples were loaded on Ready SDS-10% PAGE gels (Bio Rad, Inc) and used for Western blot analysis with the protein-specific antibody. Immunoblots were developed with chemiluminescence Renaissance reagent (NEN Life Science Products, Inc). Immunoprecipitation. Immunoprecipitation was performed according to the standard protocol. In brief, the pre-cleared lysates with equal amount of protein were incubated with 1 μg of primary antibody and 30 μl A/G agarose beads overnight at 4° C. The precipitates were washed with lysis buffer three times and re-suspended in 2× Laemmli buffer. The boiled samples were used for Western blotting, as described above. Detachment Assay—Cells were plated with and without inhibitors for 24 hours, and detached and attached cells were counted in a hemocytometer. We calculated the percent of detachment by dividing the number of detached cells by the total number of cells. The percent of detached cells was calculated in three independent experiments. Apoptosis Assay. Detached cells were collected and fixed in 3.7% formaldehyde in 1×PBS solution for the apoptosis assay. Detection of apoptosis was done with Hoechst 33342 staining. The percent of apoptotic cells was calculated as a ratio of apoptotic detached cells divided by the total number of cells in three independent experiments in several fields with the fluorescent microscope. For each experiment 300 cells per treatment were counted. In vitro Kinase Assay—10 μCi of [γ-^32P]-ATP in a kinase buffer (20 mM HEPES, pH 7.4, 5 mM MgCl2, 5 mM MnCl2, 0.1 mM Na3VO4 with 0.1 μg of purified FAK protein were incubated in a kinase buffer with 10 μCi of [γ-^32P]-ATP. The kinase reaction was performed for 5 minutes at room temperature and stopped by addition of 2× Laemmli buffer. Proteins were separated on a Ready SDS-10% PAGE gel, and the phosphorylated enolase was visualized by autoradiography. KinaseProfiler screening—Kinase specificity screening was performed with KinaseProfiler™ Service (Millipore) available on http://www.millipore.com/drugdiscovery/dd3/KinaseProfiler. The screening was performed with 1 μM Y15, 10 μM ATP and kinase substrates on 9 recombinant kinases according to Millipore protocol. Tumor Growth in Nude Mice—Female nude mice, 6 weeks old, were purchased from Harlan Laboratory. […]

[4] = system: Panc-1 cells; experiment: Apoptosis assay (Hoechst staining), Panc-1; assay type: cell-based, human; conditions: 48 hours
Description: (§3) Cell Viability Assay—The Cells were treated with peptides for 24 hours at different peptide concentrations. The 3-(4,5-dimethylthiazol-2-yl)-5-(3-carboxymethoxyphenyl)-2-(4-sulfophenyl)-2H-tetrazolium compound from Promega Viability kit (Madison, Ill.) was added, and the cells were incubated at 37° C. for 1-2 hours. The optical density on 96-plate was analyzed with a microplate reader at 490 nm to determine cell viability. In addition, cells were stained with trypan blue after 24 hours of treatment with Y15 and the percent of cells that stained positive were determined with a hemacytometer. Cell adhesion assay—The poly-L-Lysine or Collagen (5 μg/ml) coated 96-well plates were blocked with the blocking buffer (medium with 0.5% BSA) for 1 hour at 37 C. The cells were pre-treated with drugs for 3 hours and plated for adhesion at 4×10^5 cells. Cells were incubated at 37 C for 1 hour, fixed in 3.7% formaldehyde, washed in 0.1% BSA in PBS and stained with crystal violet (5 mg/ml in 2% ethanol) for 10 minutes. Then 2% SDS was added to the dried plated and OD at 590 nm was measured for detecting cell adhesion. […] Protein concentrations were determined using a Bio-Rad Kit. The boiled samples were loaded on Ready SDS-10% PAGE gels (Bio Rad, Inc) and used for Western blot analysis with the protein-specific antibody. […] Detachment Assay—Cells were plated with and without inhibitors for 24 hours, and detached and attached cells were counted in a hemocytometer. We calculated the percent of detachment by dividing the number of detached cells by the total number of cells. The percent of detached cells was calculated in three independent experiments. […] The percent of apoptotic cells was calculated as a ratio of apoptotic detached cells divided by the total number of cells in three independent experiments in several fields with the fluorescent microscope. For each experiment 300 cells per treatment were counted. […]

[5] = system: BT474 cells; experiment: Detachment assay, BT474; assay type: cell-based; conditions: 24 hours
Description: as §2, with “Detached cells were collected and fixed in 3.7% formaldehyde in 1×PBS solution for the apoptosis assay. Detection of apoptosis was done with Hoechst 33342 staining.” left out, “http://www.millipore.com/drugdiscovery/dd3/KinaseProfiler.” for “http://www.millipore.com/drugdiscovery/dd3/KinaseProfiler. The screening was performed with 1 μM Y15, 10 μM ATP and kinase substrates on 9 recombinant kinases according to Millipore protocol. Tumor Growth in Nude Mice—Female nude mice, 6 weeks old, were purchased from Harlan Laboratory.”

[6] = system: Y397-FAK phosphorylation; conditions: cited from earlier work
[7] = target: T1, FAK (Homo sapiens, UniProt Q05397); experiment: In vitro kinase assay with purified recombinant FAK; assay type: biochemical; conditions: positive control
T1 construct: made in house; host or cells: Baculovirus system
T1 sequence (Q05397 whole entry): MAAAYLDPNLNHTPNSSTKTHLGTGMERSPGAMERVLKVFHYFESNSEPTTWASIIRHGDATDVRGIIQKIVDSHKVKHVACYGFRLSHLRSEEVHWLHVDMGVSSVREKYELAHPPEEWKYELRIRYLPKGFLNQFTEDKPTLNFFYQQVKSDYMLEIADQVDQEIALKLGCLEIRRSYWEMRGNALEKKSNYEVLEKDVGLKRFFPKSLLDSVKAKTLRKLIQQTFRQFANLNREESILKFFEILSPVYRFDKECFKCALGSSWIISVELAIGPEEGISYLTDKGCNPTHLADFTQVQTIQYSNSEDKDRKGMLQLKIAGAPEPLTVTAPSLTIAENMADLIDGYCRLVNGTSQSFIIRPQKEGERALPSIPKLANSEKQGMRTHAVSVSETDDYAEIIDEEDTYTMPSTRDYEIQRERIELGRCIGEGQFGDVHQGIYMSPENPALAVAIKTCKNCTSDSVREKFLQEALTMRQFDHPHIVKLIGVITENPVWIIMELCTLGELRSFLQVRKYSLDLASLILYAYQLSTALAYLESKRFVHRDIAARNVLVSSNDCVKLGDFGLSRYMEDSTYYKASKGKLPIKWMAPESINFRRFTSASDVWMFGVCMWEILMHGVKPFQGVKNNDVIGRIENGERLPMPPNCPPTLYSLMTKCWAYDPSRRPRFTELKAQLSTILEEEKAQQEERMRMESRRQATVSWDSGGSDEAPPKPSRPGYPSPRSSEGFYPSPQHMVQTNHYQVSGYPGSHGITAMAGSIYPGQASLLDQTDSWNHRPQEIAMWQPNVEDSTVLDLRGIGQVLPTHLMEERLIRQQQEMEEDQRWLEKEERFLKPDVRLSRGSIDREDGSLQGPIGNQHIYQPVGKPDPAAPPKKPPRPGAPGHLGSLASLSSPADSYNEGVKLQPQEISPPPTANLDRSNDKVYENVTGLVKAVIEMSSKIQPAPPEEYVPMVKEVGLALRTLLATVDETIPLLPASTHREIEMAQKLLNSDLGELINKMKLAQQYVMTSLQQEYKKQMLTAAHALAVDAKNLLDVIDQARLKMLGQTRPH
Description: as §1

[8] = system: glioma and ovarian tumor; conditions: cited from earlier work
[9] = target: IGFR kinase (Homo sapiens, UniProt P08069); conditions: cited from earlier work
Chain of IGFR kinase (P08069 31-1367): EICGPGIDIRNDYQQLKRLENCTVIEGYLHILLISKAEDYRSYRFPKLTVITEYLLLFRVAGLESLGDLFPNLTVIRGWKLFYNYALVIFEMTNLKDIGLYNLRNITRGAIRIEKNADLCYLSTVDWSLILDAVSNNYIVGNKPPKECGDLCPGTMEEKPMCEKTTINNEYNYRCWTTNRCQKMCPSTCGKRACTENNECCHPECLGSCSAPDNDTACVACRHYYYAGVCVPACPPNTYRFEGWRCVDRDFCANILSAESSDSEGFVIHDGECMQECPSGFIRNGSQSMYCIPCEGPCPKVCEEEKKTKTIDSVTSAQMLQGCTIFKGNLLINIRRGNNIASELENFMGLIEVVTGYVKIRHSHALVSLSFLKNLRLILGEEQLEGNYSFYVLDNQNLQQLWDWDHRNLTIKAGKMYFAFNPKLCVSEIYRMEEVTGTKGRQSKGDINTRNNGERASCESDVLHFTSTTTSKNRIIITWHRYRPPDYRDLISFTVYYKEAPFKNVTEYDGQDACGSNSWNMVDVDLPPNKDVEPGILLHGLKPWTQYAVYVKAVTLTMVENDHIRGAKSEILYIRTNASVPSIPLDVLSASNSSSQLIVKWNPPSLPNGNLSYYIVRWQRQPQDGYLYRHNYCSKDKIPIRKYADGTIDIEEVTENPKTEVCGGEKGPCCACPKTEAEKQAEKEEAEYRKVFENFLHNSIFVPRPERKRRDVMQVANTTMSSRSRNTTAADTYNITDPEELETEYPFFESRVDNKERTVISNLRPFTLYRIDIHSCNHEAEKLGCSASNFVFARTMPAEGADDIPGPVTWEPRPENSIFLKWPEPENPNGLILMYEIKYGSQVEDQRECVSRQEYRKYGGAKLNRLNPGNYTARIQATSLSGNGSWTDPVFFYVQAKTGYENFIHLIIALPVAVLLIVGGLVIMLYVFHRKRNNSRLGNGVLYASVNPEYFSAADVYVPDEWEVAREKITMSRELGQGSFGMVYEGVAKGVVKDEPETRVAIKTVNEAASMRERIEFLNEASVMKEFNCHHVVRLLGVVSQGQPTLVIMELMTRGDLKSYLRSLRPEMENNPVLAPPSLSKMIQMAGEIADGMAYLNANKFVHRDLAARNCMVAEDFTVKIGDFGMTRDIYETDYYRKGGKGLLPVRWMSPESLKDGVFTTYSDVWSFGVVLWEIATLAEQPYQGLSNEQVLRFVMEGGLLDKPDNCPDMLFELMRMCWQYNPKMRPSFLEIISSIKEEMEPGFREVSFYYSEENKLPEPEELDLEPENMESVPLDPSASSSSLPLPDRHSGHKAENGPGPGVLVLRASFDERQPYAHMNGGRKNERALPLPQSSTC

[10] = system: BT474 cells; experiment: Apoptosis assay (Hoechst staining), BT474; assay type: cell-based
Description: as §3, with “counted. In vitro Kinase Assay—10 μCi of [γ-^32P]-ATP in a kinase buffer (20 mM HEPES, pH 7.4, 5 mM MgCl2, 5 mM MnCl2, 0.1 mM Na3VO4 with 0.1 μg of purified FAK protein were incubated in a kinase buffer with 10 μCi of [γ-^32P]-ATP. The kinase reaction was performed for 5 minutes at room temperature and stopped by addition of 2× Laemmli buffer. Proteins were separated on a Ready SDS-10% PAGE gel, and the phosphorylated enolase was visualized by autoradiography. KinaseProfiler screening—Kinase specificity screening was performed with KinaseProfiler™ Service (Millipore) available on http://www.millipore.com/drugdiscovery/dd3/KinaseProfiler.” for “counted.”

[11] = system: cell growth and survival; conditions: cited from earlier work

Question: Which results are given for `Nc1ccn([C@@H]2O[C@H](CO)[C@@H](O)C2(F)F)c(=O)n1` [gemcitabine, reference compound]?
Answer: apoptotic cells in tumors (caspase-3 staining) [1]: 2%; tumor growth [2]: inhibited tumor growth

Question: With `CNC(=O)c1ccccc1Nc1nc(Nc2ccc(N3CCOCC3)cc2OC)ncc1Cl` [TAE226, reference compound] as the molecule, how does the “total FAK level” value [3] read?
Answer: down-regulated total FAK

Question: And the “Y397 phosphorylation of FAK” value ([3]; 24 hours)?
Answer: completely blocked Y397 phosphorylation

Question: What about the “level of apoptosis compared to similar doses of Y15” value [4] of the same molecule?
Answer: slightly higher level of apoptosis

Question: What about the detachment ([5]; 10 μM) of the same molecule?
Answer: 30%

Question: What about the detachment ([5]; 50 μM) of the same molecule?
Answer: > 80%

Question: And the Y397-FAK phosphorylation [6]?
Answer: effectively blocked Y397-FAK phosphorylation

Question: And the FAK autophosphorylation activity [7]?
Answer: directly blocked autophosphorylation activity of FAK

Question: And the “tumor growth in ovarian tumor model” value ([8]; 30 mg/kg, alone)?
Answer: not so effective

Question: And the “tumor growth in vivo” value [8]?
Answer: inhibited glioma and ovarian tumor growth in vivo

Question: And the IGFR kinase inhibition [9]?
Answer: inhibited IGFR kinase

Question: And the apoptosis ([10]; 10 μM)?
Answer: 35%

Question: And the apoptosis ([10]; 20 μM)?
Answer: 69%

Question: What does the source list for `CS(=O)(=O)c1cccc(CNc2nc(Nc3ccc4c(c3)CCC(=O)N4)ncc2C(F)(F)F)c1` [PF-573,228]?
Answer: cell growth and survival in vitro [11]: did not inhibit cell growth and survival in vitro; Y397-FAK phosphorylation [6]: effectively blocked Y397-FAK phosphorylation
